This passage reports IC50 results from patent US9567334B2, “Quinolone derivatives as fibroblast growth factor receptor inhibitors” (Principia Biopharma, Inc., priority 2014, dated 2017).

The structures appear in SMILES notation.

This experiment relates to SNU-16 cells. In words: Inhibition of FGFR2-dependent cell growth (Cell-titer Glo, 72 hrs). Conditions: Homo sapiens, SNU-16, 72 h, read-out: SNU16 IC50 values.

Consider `C=CC(=O)N1CCN(CCCn2c(=O)c(-c3c(Cl)c(OC)cc(OC)c3Cl)cc3cnc(NC4COC4)nc32)CC1` [Example 66, 8-(3-(4-acryloylpiperazin-1-yl)propyl)-6-(2,6-dichloro-3,5-dimethoxyphenyl)-2-(oxetan-3-ylamino)pyrido[2,3-d]pyrimidin-7(8H)-one], for which the IC50 – broadly, the point on the concentration scale where inhibition reaches its midpoint – was more than 5 µM.
